± gives the expanded uncertainty stated by the source.
Assays:
[1] = Liquid, Ebulliometric method (Recirculating still)
[2] = refractive index (Na D-line) (dimensionless); conditions: 101.33 kPa, Standard Abbe refractometry

Question: For `O` [water], which “vapor or sublimation pressure” value ([1]; 373.05 K) is on record?
Answer: 101.3 ± 0.5 kPa

Question: Which “vapor or sublimation pressure” value ([1]; 422.28 K) does the source give for `Cc1cccc(O)c1` [3-methylphenol] here?
Answer: 20 ± 0.2 kPa

Question: And the Normal boiling temperature [1]?
Answer: 202.20 ± 1 °C

Question: And the refractive index ([2]; 293.15 K, Liquid)?
Answer: 1.5396 ± 0.0008

Question: And the refractive index ([2]; 298.15 K, Liquid)?
Answer: 1.5374 ± 0.0008

Question: For `CCO` [ethanol], which “vapor or sublimation pressure” value ([1]; 351.38 K) is on record?
Answer: 101.3 ± 0.5 kPa

Question: Which results are given for `CC(O)CNCC(C)O` (stereo not drawn) [N-(2-hydroxypropyl)-2-hydroxy-1-propanamine]?
Answer: vapor or sublimation pressure ([1]; 468.25 K): 20 ± 0.2 kPa; Normal boiling temperature [1]: 249.1 ± 1 °C; refractive index ([2]; 294.15 K, Liquid): 1.4625 ± 0.0008

Question: Which “vapor or sublimation pressure” value ([1]; 418.21 K) does the source give for `Cc1cccc(C)c1O` [2,6-dimethylphenol] here?
Answer: 20 ± 0.2 kPa

Question: And the Normal boiling temperature [1]?
Answer: 201.20 ± 1 °C

Question: What about the refractive index ([2]; 293.15 K, Metastable liquid) of the same compound?
Answer: 1.5075 ± 0.0008

Question: What about the refractive index ([2]; 298.15 K, Metastable liquid) of the same compound?
Answer: 1.5053 ± 0.0008
